Assay results taken from patent US20250134863A1, “MEDICAL AGENT FOR TREATING OR SUPPRESSING PROGRESSION OF AMYOTROPHIC LATERAL SCLEROSIS” (MITSUBISHI TANABE PHARMA CORPORATION, priority 2022, published 2025).
Where “and” joins values, the source holds several entries; their conditions need not be identical. Identical values can stand only once.

How the values were obtained:
Assay type in all cases: in vivo, human
[1] = system: ALS patients; assay: Post-hoc statistical analysis 2: uric acid levels from baseline to cycle 12 (16, 17 and 19 trials); conditions: placebo-controlled double-blind period (cycles 1-6); edaravone group vs placebo group
[2] = system: ALS patients; assay: Post-hoc statistical analysis 1: blood uric acid levels in 25% improvement and non-25% improvement groups
Method: The blood uric acid levels in the 16 trial, 17 trial, and 19 trial were measured values obtained using the uricase-peroxidase method.
In the present analysis, efficacy was analyzed for placebo patients who had completed the 24-week double-blind period (cycles 1 to 6) and had at least one data point in cycle 7. To estimate the percent change in ALSFRS-R slope for transition from placebo administration (baseline to 24 weeks) to edaravone administration (24 weeks 24 to 48 weeks), a random coefficient model was applied to all available ALSFRS-R score data during this period.
A 25% improvement group meets both of the following criteria:
(1) ALSFRS-R slope % change ≥+25% (this change is defined as a clinically significant improvement (Reference 5: Amyotroph Lateral Scler 2010; 11 (1-2): 178-180)) and (2) ALSFRS-R total score at the start of cycle 7 (24 weeks)>24 points (half of the 48-point ALSFRS-R total score) (this helps avoid floor effects related to the ALSFRS-R total score that could lead to false positives in the analysis).
These criteria were used to define a 25% improvement group and a non-25% improvement group. Using a mixed model for repeated measures, the changes in uric acid levels from the start of cycle 7 (24 weeks) to cycle 12 (48 weeks) were summarized for the 25% improvement group and the non-25% improvement group. The correlation between the change in uric acid levels from 24 weeks to 48 weeks and the ALSFRS-R slope percent change was descriptively summarized using the Wilcoxon test.

[3] = system: ALS patients; assay: Post-hoc statistical analysis 2: ALSFRS-R total score from baseline to cycle 12 (16, 17 and 19 trials), MMRM; conditions: Overall; EE group
From the text: After a 12-week observation period, patients whose ALSFRS-R total score decreased by 1 to 4 points during that period were considered eligible for the trial. In the 16 trial, eligible patients were randomly divided into an edaravone treatment group and a placebo administration group, and patients in each group received administration for 24 weeks (cycles 1 to 6). After completing the 24-week double-blind portion of the 16 trial, patients who received edaravone (E) were randomly assigned to the 17 trial, and during a 24-week double-blind extension period (cycles 7 to 12), edaravone treatment (EE group) or placebo administration (EP group) was performed. On the other hand, all patients from the placebo (P) administration group received edaravone treatment (PE group). All patients received open-label edaravone treatment for the next 12 weeks (cycles 13 to 15).
Edaravone was administered at a dose of 60 mg by intravenous infusion over 60 minutes, once daily. The infusion was given for 14 days in the first treatment cycle, and for 10 days out of the 14-day treatment period in all subsequent cycles. A 14-day drug holiday period was provided after each treatment cycle.
Similar to the 16 trial, after a 12-week observation period, patients in the 19 trial were randomly divided into an edaravone treatment group and a placebo administration group, and patients in each group received administration for 24 weeks (cycles 1 to 6). In the 19 trial, after the double-blind treatment period, all patients received open-label edaravone treatment for an additional 24 weeks (cycles 7 to 12). Therefore, the 19 trial included an EE group and a PE group.
In order to characterize the uric acid level and ALSFRS-R total score profiles at cycle 12, efficacy was analyzed in randomized ALS patients at the start of cycle 7 and randomized ALS patients who received the medical agent at least once after the start of cycle 7.
Descriptive statistics (number of subjects, mean, standard deviation, minimum, maximum) were used to summarize the changes in uric acid levels (mg/dL) and ALSFRS-R total scores from baseline to cycle 12 for the entire population and for the Edaravone treatment group as a subgroup defined by the median baseline uric acid level (4.8 mg/dL). The median baseline uric acid level for all patients (4.8 mg/dL) was derived using the entire edaravone population, including the EE, PE, and EP groups in the 16 trial, the 17 trial, and the 19 trial.
The least squares (LS) mean difference of the EE and EP treatment groups compared to the PE treatment group was estimated using a mixed-effects model for repeated measures (MMRM). By using the MMRM, the LS mean, standard error, 95% confidence interval (CI), and p-value for each group are calculated. The MMRM includes treatment group, time point, interaction between treatment group and time point, age (<65 years or >65 years), initial symptoms (bulbar or limb symptoms), ALS diagnostic criteria (ALS definite, ALS highly possible, ALS highly possible with positive test findings, ALS possible), change in ALSFRS-R total score during the 12-week observation period (−1/−2 or −3/−4), and use of riluzole (Yes or No) as fixed effects, and includes baseline of the ALSFRS-R total score or uric acid baseline (mg/dL) of the median subgroup as covariates. A compound symmetric covariance matrix was applied to model covariance of within-patient scores, and the Kenward-Roger approximation was applied to estimate a degrees of freedom of the criteria. The statistical significance level was set at a two-sided level of 0.05.

[4] = 25% improvement group, ALS severity grade 3 to 5
[5] = 25% improvement group, ALS severity grade 3 to 5, first change section of Table 3 (n=21)
[6] = 25% improvement group, ALS severity grade 3 to 5, second change section of Table 3 (n=18)
[7] = 25% improvement group, all severities
[8] = non-25% improvement group, ALS severity grade 3 to 5
[9] = non-25% improvement group, ALS severity grade 3 to 5, first change section of Table 3 (n=39)
[10] = non-25% improvement group, ALS severity grade 3 to 5, second change section of Table 3 (n=24)
[11] = non-25% improvement group, all severities

Compound: CC1=NN(c2ccccc2)C(=O)C1 [edaravone, 3-methyl-1-phenyl-2-pyrazolin-5-one]
- decrease in uric acid levels from baseline at cycle 6 [1]: smaller decrease in uric acid levels compared to the placebo group
- Uric acid level at final administration of Cycle 7, Mean (SD) [2, 4]: 4.65 (1.49) mg/dL
- Uric acid level at final administration of Cycle 12, Mean (SD) [2, 4]: 4.61 (1.48) mg/dL
- Uric acid change from start of Cycle 7 to final administration of Cycle 12, LS mean (SE) [2, 5]: −0.37 (0.24) mg/dL
- Uric acid change from start of Cycle 7 to final administration of Cycle 12, Mean (SD) [2, 5]: 0.05 (0.47) mg/dL
- Uric acid change from start of Cycle 7 to final administration of Cycle 12, LS mean (SE) [2, 6]: −0.42 (0.24) mg/dL
- Uric acid change from start of Cycle 7 to final administration of Cycle 12, Mean (SD) [2, 6]: 0.04 (0.60) mg/dL
- Uric acid change from start of Cycle 7 to final administration of Cycle 7, LS mean (SE) [2, 7]: −0.16 mg/dL and −0.16 (0.15) mg/dL
- Uric acid change from start of Cycle 7 to final administration of Cycle 7, Mean (SD) [2, 7]: 0.05 mg/dL and 0.05 (0.49) mg/dL
- Uric acid change from start of Cycle 7 to final administration of Cycle 12, LS mean (SE) [2, 7]: −0.28 mg/dL and −0.28 (0.15) mg/dL
- Uric acid change from start of Cycle 7 to final administration of Cycle 12, Mean (SD) [2, 7]: −0.04 mg/dL and −0.04 (0.68) mg/dL
- Uric acid level at final administration of Cycle 12, Mean (SD) [2, 7]: 4.51 (1.43) mg/dL
- Uric acid level at final administration of Cycle 7, Mean (SD) ([2]; 25% improvement group, all severities, 2 weeks after starting edaravone): 4.63 (1.45) mg/dL
- Uric acid change from start of Cycle 7 to final administration of Cycle 12, LSMD (SE) between 25% improvement group and non-25% improvement group ([2]; ALS severity grade 3 to 5, first change section of Table 3, p=0.1701): 0.24 (0.18) mg/dL
- Uric acid change from start of Cycle 7 to final administration of Cycle 12, LSMD (SE) between 25% improvement group and non-25% improvement group ([2]; ALS severity grade 3 to 5, second change section of Table 3, p=0.0044): 0.55 (0.19) mg/dL
- Uric acid change from start of Cycle 7 to final administration of Cycle 12, LSMD (SE) between 25% improvement group and non-25% improvement group ([2]; all severities, p=0.0252): 0.28 mg/dL and 0.28 (0.12) mg/dL
- Uric acid change from start of Cycle 7 to final administration of Cycle 7, LSMD (SE) between 25% improvement group and non-25% improvement group ([2]; all severities, p=0.0726): 0.21 mg/dL and 0.21 (0.12) mg/dL
- Uric acid level at final administration of Cycle 7, Mean (SD) [2, 8]: 4.31 (1.10) mg/dL
- Uric acid level at final administration of Cycle 12, Mean (SD) [2, 8]: 4.18 (1.00) mg/dL
- Uric acid change from start of Cycle 7 to final administration of Cycle 12, LS mean (SE) [2, 9]: −0.61 (0.21) mg/dL
- Uric acid change from start of Cycle 7 to final administration of Cycle 12, Mean (SD) [2, 9]: −0.22 (0.60) mg/dL
- Uric acid change from start of Cycle 7 to final administration of Cycle 12, LS mean (SE) [2, 10]: −0.98 (0.22) mg/dL
- Uric acid change from start of Cycle 7 to final administration of Cycle 12, Mean (SD) [2, 10]: −0.40 (1.02) mg/dL
- Uric acid change from start of Cycle 7 to final administration of Cycle 7, LS mean (SE) [2, 11]: −0.37 mg/dL and −0.37 (0.12) mg/dL
- Uric acid change from start of Cycle 7 to final administration of Cycle 7, Mean (SD) [2, 11]: −0.14 mg/dL and −0.14 (0.52) mg/dL
- Uric acid change from start of Cycle 7 to final administration of Cycle 12, LS mean (SE) [2, 11]: −0.56 mg/dL and −0.56 (0.12) mg/dL
- Uric acid change from start of Cycle 7 to final administration of Cycle 12, Mean (SD) [2, 11]: -0.22 mg/dL and −0.22 (0.81) mg/dL
- Uric acid level at final administration of Cycle 7, Mean (SD) [2, 11]: 4.46 (1.29) mg/dL
- Uric acid level at final administration of Cycle 12, Mean (SD) [2, 11]: 4.48 (1.29) mg/dL
- ALSFRS-R total score change from BL to cycle 12, LS Mean (SE) [3]: −7.2 (1.17) points
